Assay results as given in patent publication US20120148547A1, “COMBINATION OF VITAMIN E AND BETA-GLYCOSPHINGOLIPIDS IN COMPOSITIONS AND METHODS FOR PREVENTING AND TREATING HEPATIC DISORDERS” (Hadasit Medical Reasearch Services & Development Ltd., priority 2009, published 2012).

Tests used:
[1] = tested on: acetaminophen-induced liver injury; experiment: Acetaminophen-induced liver injury in mice treated with GC and vitamins, serum ALT and AST (Example 2); format: in vivo, Male C57B1/6 mice; settings: 24 hr after acetaminophen; vitamins by gavage, with or without 100 μg GC two hours before acetaminophen
Protocol: Male C57B1/6 mice (11-12 weeks old) were obtained from Harlan Laboratories (Jerusalem, Israel) and maintained in the Animal Core of the Hadassah-Hebrew University Medical School. β-glucosylceramide (GC) was purchased from Avanti Polar Lipids (Alabaster, Ala., USA). […] Acetaminophen Sigma (cat. # A7085), was dissolved in a mixture of 30% Cremophor EL (Sigma, Rehovot, Israel) and ethanol (1:1) in DDW (Di distilled water). Mice were tested for serum Alanine transaminase (ALT) and Aspartate aminotransferase (AST) at 24 hours after acetaminophen administration. Serum AST and ALT levels were measured by an automatic analyzer. Mice of all groups (eight per group) were fasted for eight hours before oral administration of acetaminophen and for additional four hours after administration. […] Animals were sacrificed after 24 hours, and liver damage was assessed in all groups by examining serum levels of ALT, AST, GSH and TNF-α.

hepatic NKT cells = experiment: Flow cytometry of hepatic NKT lymphocytes (CD3+NK1.1+) after acetaminophen; format: in vivo, mice; settings: pretreatment before acetaminophen
Protocol: For intrahepatic lymphocytes, livers were first crushed through a stainless mesh (size 60, Sigma) and cell suspension was placed in a 50-mL tube for 5 min to pellet the cell debris. Ten milliliters of Lymphoprep (Ficoll, Axis-Shield PoC AS, Oslo, Norway) was slowly placed under the same volume of cell suspension in 50-mL tubes. The tubes were then centrifuged at 1800 rpm for 18 min. Cells at the interface were collected and transferred to new tubes, which were then centrifuged at 1800 rpm for 10 min, to obtain a cell pellet depleted of hepatocytes in a final volume of 250 μl. Approximately 1×10^6 cells/mouse liver were recovered.
Flow cytometry was performed following lymphocyte isolation using 1×10^6 lymphocytes in 100 μl PBS. […] Pacigic Blue anti mouse CD4, FITC-anti mouse CD8 subsets were also used ((eBioscience, USA). For intracellular staining we used PE-anti mouse CD25 and PE-Cy7 anti mouse FOXp3 (eBioscience, USA). Cells were incubated for 30 min at 4° C. in the dark, and washed and resuspended in 200 μl PBS. Analytical cell sorting was performed on 1×10^4 cells from each group using a fluorescence-activated cell sorter (FACSTAR plus, Becton Dickinson). Only live cells were counted and unstained cells served as controls for background fluorescence. Gates were set on forward- and side-scatters to exclude dead cells and red blood cells. […]

[2] = tested on: acetaminophen-induced liver injury; experiment: Acetaminophen-induced liver injury in mice treated with GC, serum ALT and AST (Example 1); format: in vivo, Male C57B1/6 mice; design: ALT levels: unit not given here; settings: for ALT levels: p<0.001; for AST levels: control group A 6634, p<0.04
Protocol: Male C57B1/6 mice (11-12 weeks old) were obtained from Harlan Laboratories (Jerusalem, Israel) and maintained in the Animal Core of the Hadassah-Hebrew University Medical School. β-glucosylceramide (GC) was purchased from Avanti Polar Lipids (Alabaster, Ala., USA). Glycolipids (3.3 mg/ml) were dissolved in a mixture of 30% Cremophor EL (Sigma, Rehovot, Israel) and ethanol (1:1, C:E) in PBS. Acetaminophen Sigma (cat. # A7085), was dissolved in a mixture of 30% Cremophor EL (Sigma, Rehovot, Israel) and ethanol (1:1) in DDW (Di distilled water). […] Serum AST and ALT levels were measured by an automatic analyzer. Beta glycolipides were previously shown by the present inventors as having immunomodulatory effects. […] The inventors therefore next examined whether such effect may also enhance the glutathione system and thereby ameliorate hepatic injury induced by drugs such as acetaminophen. The effect of GC on acetaminophen-induced liver injury was evaluated by examination of liver enzyme (ALT and AST). Three groups of mice, 15 animals per group, were studied. Mice of all groups were fasted for eight hours before oral administration of acetaminophen and for additional four hours after administration. Mice in all groups were administered orally (PO) with 10 mg/330 μl acetaminophen (in C:E gavage administration). In addition, mice were administered with 100 μg β-glucosylceramide (β-GC, in 30 μl of C:E) two hours before administration of acetaminophen (Group B) and every two hours after acetaminophen administration (Group C), Mice in control group A were treated only with oral PBS.

Compound | effect on ALT levels (FIG. 4) [1] | change in hepatic NKT cells (hepatic NKT cells) | ALT levels ([2]; 12 hr after acetaminophen 10 mg PO, 100 μg GC every two hours after acetaminophen (Group C), control group A 505) | ALT levels ([2]; 12 hr after acetaminophen 10 mg PO, 100 μg GC two hours before acetaminophen (Group B), control group A 505) | AST levels ([2]; 24 hr after acetaminophen, GC every two hours after acetaminophen (Group C)) | ALT levels ([2]; 24 hr after acetaminophen, GC every two hours after acetaminophen (Group C), control group A 12150) | AST levels ([2]; 24 hr after acetaminophen, GC two hours before acetaminophen (Group B)) | ALT levels ([2]; 24 hr after acetaminophen, GC two hours before acetaminophen (Group B), control group A 12150)
O=C1O[C@H]([C@@H](O)CO)C(O)=C1O [vitamin C, L-Ascorbic acid] | negligible effect |  |  |  |  |  |  | 
Cc1c(C)c2c(c(C)c1O)CC[C@@](C)(CCC[C@H](C)CCC[C@H](C)CCCC(C)C)O2 [vitamin E, α-Tocopherol] | negligible effect | became significant |  |  |  |  |  | 
β-glucosylceramide [GC] |  | small increase | 364 | 332 | 4029 | 5034 | 3650 | 5222
